# In patent publication US9527832B2, “Substituted condensed pyrimidine compounds” (GRÜNENTHAL GMBH, priority 2013, dated 2016):
# Biological target: T1, human PDE4B1 (Homo sapiens, UniProt Q07343)
# T1 construct: host or cells: Sf9 cells
# Assay: cAMP HTRF assay to determine the activity of hPDE4B1
# Format: biochemical
# Conditions: for IC50: dose response measurements with eight concentrations, reported as ranges, read-out: IC50
# Procedure: cAMP HTRF® Assay to Determine the Activity of hPDE4B1
# The inhibiting effect of the compounds on the enzyme activity of human PDE4B1 was measured by the quantification of 5′-adenosine monophosphate (5′-AMP), which is formed from 3′,5′-cyclic adenosine monophosphate (cAMP). Human recombinant enzyme, expressed in Sf9 cells, and the HTRF (homogeneous time-resolved fluorescence) detection method were used in the assay.
# The test compound or water (control) was mixed with the human recombinant PDE4B1 enzyme (4.8 U) in a buffer consisting of 44.4 mM tris-HCl, 5.28 mM MgCl2, 2.64 mM DTT and 0.044% Tween 20 (pH 7.8). After adding the cAMP enzyme substrate (final concentration 40 nM), the mixture was incubated for 30 minutes at room temperature. Then a fluorescence acceptor (Dye2 marked with cAMP), a fluorescence donor (anti-cAMP antibody marked with a europium cryptate) and the non-specific phosphodiesterase inhibitor IBMX (3-isobutyl-1-methylxanthine; final concentration 1 mM) were added. After 60 minutes the fluorescence transfer, which correlates with the amount of remaining cAMP, was measured with a microplate reader (Rubystar, BMG) at λex=337 nm, λem=620 nm and λem=665 nm. The enzyme activity was calculated from the quotient formed from the measured signal at 665 nm and that at 620 nm. The result was expressed as the percentage inhibition of enzyme activity of the control (without PDE4 inhibitor). The enzyme was omitted for measurement of the basal control.
# IC50 values (IC50=concentration causing a half-maximal inhibition of control specific activity) were derived from dose response measurements with eight different concentrations (n=2; N=1-2).
# Literature: N. Saldou et al., Comparison of recombinant human PDE4 isoforms: interaction with substrate and inhibitors, Cell. Signal. Vol. 10, No. 6, 427-440, 1998
# [1] = Percentage inhibition of PDE4B at 1 μM test concentration
# T1 sequence (Q07343 whole entry): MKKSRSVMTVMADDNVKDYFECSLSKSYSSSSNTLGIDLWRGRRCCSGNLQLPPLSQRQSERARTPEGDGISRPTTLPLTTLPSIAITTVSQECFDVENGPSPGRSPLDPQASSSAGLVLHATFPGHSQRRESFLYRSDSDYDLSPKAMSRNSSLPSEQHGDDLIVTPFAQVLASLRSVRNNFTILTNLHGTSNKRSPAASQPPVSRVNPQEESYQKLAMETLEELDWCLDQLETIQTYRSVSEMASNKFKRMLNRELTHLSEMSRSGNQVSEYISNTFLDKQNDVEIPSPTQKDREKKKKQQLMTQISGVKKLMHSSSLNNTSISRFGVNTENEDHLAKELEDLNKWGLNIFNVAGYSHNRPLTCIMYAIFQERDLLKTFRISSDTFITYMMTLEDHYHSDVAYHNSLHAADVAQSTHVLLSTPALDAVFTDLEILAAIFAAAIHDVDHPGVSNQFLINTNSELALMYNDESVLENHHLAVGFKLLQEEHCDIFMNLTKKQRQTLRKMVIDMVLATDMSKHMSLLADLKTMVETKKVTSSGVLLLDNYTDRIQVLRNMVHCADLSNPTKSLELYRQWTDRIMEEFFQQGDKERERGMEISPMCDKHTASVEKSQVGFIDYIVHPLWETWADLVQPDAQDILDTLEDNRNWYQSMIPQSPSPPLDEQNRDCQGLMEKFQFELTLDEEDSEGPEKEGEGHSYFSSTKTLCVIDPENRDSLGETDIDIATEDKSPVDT
SMILES,inhibition at 1 µM [1] [%],IC50 [µM],"Inhibition at 1 μM test concentration [%] (Percentage inhibition of PDE4B at 1 μM test concentration, 1 µM)"
"O=C(O)c1ccc2c(c1)ncn2-c1nc(-c2ccc(Cl)s2)nc2c1CCC2 (single isomer, unassigned) [Compound No. 1-63, 1-(2-(5-Chlorothiophen-2-yl)-6,7-dihydro-5H-cyclopenta[d]pyrimidin-4-yl)-1H-benzo[d]imidazole-5-carboxylic acid]",35,,
"O=C(O)c1ccc2ncn(-c3nc(-c4ccc(Cl)s4)nc4c3CCC4)c2c1 (single isomer, unassigned) [Compound No. 1-74, 1-(2-(5-Chlorothiophen-2-yl)-6,7-dihydro-5H-cyclopenta[d]pyrimidin-4-yl)-1H-benzo[d]imidazole-6-carboxylic acid]",31,,
"COc1ccc(-c2nc3c(c(N4CCc5ccc(OCC(=O)N(C)C)cc54)n2)C[S+]([O-])C3)cc1 (centres unmarked) [2-20, 2-[[1-[2-(4-Methoxyphenyl)-6-oxo-5,7-dihydro-thieno[3,4-d]pyrimidin-4-yl]-2,3-dihydro-1H-indol-6-yl]oxy]-N,N-dimethyl-acetamide]",,,98
"CN(C)C(=O)COc1ccc2c(c1)N(c1nc(-c3cccc(F)c3)nc3c1C[S+]([O-])C3)CC2 (centres unmarked) [2-24, 2-[[1-[2-(3-Fluorophenyl)-6-oxo-5,7-dihydro-thieno[3,4-d]pyrimidin-4-yl]-2,3-dihydro-1H-indol-6-yl]oxy]-N,N-dimethyl-acetamide]",115,< 0.1,
COc1ccc(-c2nc3c(c(N4CCc5ccc(OCC(=O)N(C)C)cc54)n2)CSC3)cc1Cl [2-31],,< 0.1,
"O=C(COc1ccc2c(c1)N(c1nc(-c3ccc(Cl)s3)nc3c1CS(=O)(=O)C3)CC2)NCCO [2-62, 2-((1-(2-(5-Chlorothiophen-2-yl)-6,6-dioxido-5,7-dihydrothieno[3,4-d]pyrimidin-4-yl)indolin-6-yl)oxy)-N-(2-hydroxyethyl)acetamide]",91,< 0.1,
"CN(C)C(=O)COc1ccc2c(c1)N(c1nc(-c3ccc(C(N)=O)s3)nc3c1CCC3)CC2 [2-85, 5-(4-(6-(2-(Dimethylamino)-2-oxoethoxy)indolin-1-yl)-6,7-dihydro-5H-cyclopenta[d]pyrimidin-2-yl)thiophene-2-carboxamide]",99,,
"Cc1ccc(-c2nc3c(c(N4CCc5ccc(OCC(=O)N(C)C)cc54)n2)C[S+]([O-])C3)cc1 (centres unmarked) [2-87, N,N-Dimethyl-2-[[1-(6-oxo-2-p-tolyl-5,7-dihydro-thieno[3,4-d]pyrimidin-4-yl)-2,3-dihydro-1H-indol-6-yl]oxy]-acetamide]",112,< 0.1,
"CN(C)C(=O)COc1ccc2c(c1)N(c1nc(-c3ccc(Cl)cc3)nc3c1C[S+]([O-])C3)CC2 (centres unmarked) [2-90, 2-[[1-[2-(4-Chlorophenyl)-6-oxo-5,7-dihydro-thieno[3,4-d]pyrimidin-4-yl]-2,3-dihydro-1H-indol-6-yl]oxy]-N,N-dimethyl-acetamide]",117,< 0.1,
"COc1cccc(-c2nc3c(c(N4CCc5ccc(OCC(=O)N(C)C)cc54)n2)C[S+]([O-])C3)c1 (centres unmarked) [2-91, 2-[[1-[2-(3-Methoxyphenyl)-6-oxo-5,7-dihydro-thieno[3,4-d]pyrimidin-4-yl]-2,3-dihydro-1H-indol-6-yl]oxy]-N,N-dimethyl-acetamide]",117,< 0.1,
"CN(C)C(=O)COc1ccc2c(c1)N(c1nc(-c3ccc(C#N)cc3)nc3c1C[S+]([O-])C3)CC2 (centres unmarked) [2-92, 2-[[1-[2-(4-Cyano-phenyl)-6-oxo-5,7-dihydro-thieno[3,4-d]pyrimidin-4-yl]-2,3-dihydro-1H-indol-6-yl]oxy]-N,N-dimethyl-acetamide]",97,< 0.1,
"CN(C)C(=O)COc1ccc2c(c1)N(c1nc(-c3ccccc3)nc3c1C[S+]([O-])C3)CC2 (centres unmarked) [2-93, N,N-Dimethyl-2-[[1-(6-oxo-2-phenyl-5,7-dihydro-thieno[3,4-d]pyrimidin-4-yl)-2,3-dihydro-1H-indol-6-yl]oxy]-acetamide]",121,< 0.1,
"Cc1ccccc1-c1nc2c(c(N3CCc4ccc(OCC(=O)N(C)C)cc43)n1)C[S+]([O-])C2 (centres unmarked) [2-94, N,N-Dimethyl-2-[[1-(2-o-tolyl-6-oxo-5,7-dihydro-thieno[3,4-d]pyrimidin-4-yl)-2,3-dihydro-1H-indol-6-yl]oxy]-acetamide]",91,0.1 to 1,
"Cc1cccc(-c2nc3c(c(N4CCc5ccc(OCC(=O)N(C)C)cc54)n2)C[S+]([O-])C3)c1 (centres unmarked) [2-95, N,N-Dimethyl-2-[[1-(2-m-tolyl-6-oxo-5,7-dihydro-thieno[3,4-d]pyrimidin-4-yl)-2,3-dihydro-1H-indol-6-yl]oxy]-acetamide]",113,< 0.1,
"CN(C)C(=O)COc1ccc2c(c1)N(c1nc(-c3ccccc3C(F)(F)F)nc3c1C[S+]([O-])C3)CC2 (centres unmarked) [2-97, N,N-Dimethyl-2-[[1-[6-oxo-2-[2-(trifluoromethyl)-phenyl]-5,7-dihydro-thieno[3,4-d]pyrimidin-4-yl]-2,3-dihydro-1H-indol-6-yl]oxy]-acetamide]",93,0.1 to 1,
"CN(C)C(=O)COc1ccc2c(c1)N(c1nc(-c3cccc(C#N)c3)nc3c1C[S+]([O-])C3)CC2 (centres unmarked) [2-98, 2-[[1-[2-(3-Cyano-phenyl)-6-oxo-5,7-dihydro-thieno[3,4-d]pyrimidin-4-yl]-2,3-dihydro-1H-indol-6-yl]oxy]-N,N-dimethyl-acetamide]",98,< 0.1,
"CN(C)C(=O)COc1ccc2c(c1)N(c1nc(-c3ccc(F)cc3)nc3c1C[S+]([O-])C3)CC2 (centres unmarked) [2-99, 2-[[1-[2-(4-Fluorophenyl)-6-oxo-5,7-dihydro-thieno[3,4-d]pyrimidin-4-yl]-2,3-dihydro-1H-indol-6-yl]oxy]-N,N-dimethyl-acetamide]",104,< 0.1,

# Next, values leading:
inhibition at 1 µM [1] [%],IC50 [µM],"Inhibition at 1 μM test concentration [%] (Percentage inhibition of PDE4B at 1 μM test concentration, 1 µM)",SMILES
80,0.1 to 1,,"CN(C)C(=O)COc1ccc2ncn(-c3nc(-c4ccc(Cl)s4)nc4c3C[S+]([O-])C4)c2c1 (single isomer, unassigned) [Compound No. 2-74, 2-((1-(2-(5-Chlorothiophen-2-yl)-6-oxido-5,7-dihydrothieno[3,4-d]pyrimidin-4-yl)-1H-benzo[d]imidazol-6-yl)oxy)-N,N-dimethylacetamide]"
39,,,"CN(C)C(=O)COc1ccc2c(c1)ncn2-c1nc(-c2ccc(Cl)s2)nc2c1C[S+]([O-])C2 (single isomer, unassigned) [Compound No. 2-75, 2-((1-(2-(5-Chlorothiophen-2-yl)-6-oxido-5,7-dihydrothieno[3,4-d]pyrimidin-4-yl)-1H-benzo[d]imidazol-5-yl)oxy)-N,N-dimethylacetamide]"
105,< 0.1,,"COc1ccc(-c2nc3c(c(N4CCc5ccc(OCC(=O)N(C)C)cc54)n2)C[S+]([O-])C3)cc1 (centres unmarked) [2-18, 2-((1-(2-(4-Methoxyphenyl)-6-oxido-5,7-dihydrothieno[3,4-d]pyrimidin-4-yl)indolin-6-yl)oxy)-N,N-dimethylacetamide]"
94,< 0.1,,"CN(C)C(=O)COc1ccc2c(c1)N(c1nc(-c3ccc(F)s3)nc3c1C[S+]([O-])C3)CC2 (centres unmarked) [2-48, 2-((1-(2-(5-Fluorothiophen-2-yl)-6-oxido-5,7-dihydrothieno[3,4-d]pyrimidin-4-yl)indolin-6-yl)oxy)-N,N-dimethylacetamide]"
62,0.1 to 1,,"CN(C)C(=O)COc1ccc2oc(=O)n(-c3nc(-c4ccc(Cl)s4)nc4c3C[S+]([O-])C4)c2c1 (centres unmarked) [2-76, 2-((3-(2-(5-Chlorothiophen-2-yl)-6-oxido-5,7-dihydrothieno[3,4-d]pyrimidin-4-yl)-2-oxo-2,3-dihydrobenzo[d]oxazol-5-yl)oxy)-N,N-dimethylacetamide]"
73,0.1 to 1,,"COc1ccccc1-c1nc2c(c(N3CCc4ccc(OCC(=O)N(C)C)cc43)n1)C[S+]([O-])C2 (centres unmarked) [2-88, 2-[[1-[2-(2-Methoxyphenyl)-6-oxo-5,7-dihydro-thieno[3,4-d]pyrimidin-4-yl]-2,3-dihydro-1H-indol-6-yl]oxy]-N,N-dimethyl-acetamide]"
119,< 0.1,,"CN(C)C(=O)COc1ccc2c(c1)N(c1nc(-c3cccc(Cl)c3)nc3c1C[S+]([O-])C3)CC2 (centres unmarked) [2-89, 2-[[1-[2-(3-Chlorophenyl)-6-oxo-5,7-dihydro-thieno[3,4-d]pyrimidin-4-yl]-2,3-dihydro-1H-indol-6-yl]oxy]-N,N-dimethyl-acetamide]"
107,< 0.1,,"CN(C)C(=O)COc1ccc2c(c1)N(c1nc(-c3ccccc3Cl)nc3c1C[S+]([O-])C3)CC2 (centres unmarked) [2-96, 2-[[1-[2-(2-Chlorophenyl)-6-oxo-5,7-dihydro-thieno[3,4-d]pyrimidin-4-yl]-2,3-dihydro-1H-indol-6-yl]oxy]-N,N-dimethyl-acetamide]"
